Read-outs that look alike come from different tables or passages of the source.
System: immortalized megakaryocyte cell line
Assay: Test Example 1: platelet production, shake culturing
Type: cell-based
Conditions: for fold induction at 10 µM: Platelet, 144 h, read-out: Amount of platelet production (vs. Control); for Amount of platelet production (vs. Control): aryl hydrocarbon receptor antagonist Compound A5 0.1 μM added at cell seeding, counted after 6 days
Procedure: The immortalized megakaryocyte cell line obtained according to the method described in WO 2016/204256 was washed twice with D-PBS(−) and then cultured in medium not containing doxycycline to terminate forced expression (cultured under conditions where gene expression is OFF). Shake culturing at 100 rpm was performed in the following medium after the cells were seeded in a 125-mL polycarbonate Erlenmeyer flask (Corning #431143) at 25 mL/flask and a seeding density of 1×10^5 cells/mL. Culturing conditions were 37° C. and 5% CO2. The medium was obtained by adding the following components to IMDM serving as the basal medium (concentrations indicate final concentrations). • FBS 15% • L-Glutamine 2 mM • ITS 100-fold dilution • MTG 450 μM • Ascorbic acid 50 μg/mL • SCF 50 ng/mL • TA-316 0.1 μg/mL • ADAM inhibitor 15 μM • ROCK inhibitor 0.5 μM […] After culturing for 6 days in total, the number of platelets was measured. The measurement method was as follows. The same operation was performed for control. At 6 days after initiation of the culturing under conditions where gene expression was OFF, a part of the culture supernatant was collected, and suspended with the following antibody and Flow-Count Fluorospheres (Beckman Coulter #7547053) to perform staining. • APC-labeled anti-CD41 antibody (BioLegend #303710) • eFluor 450-labeled anti-CD42a antibody (eBioscience #48-0428-42) • PE-labeled anti-CD42b antibody (BioLegend #303906) At 30 minutes after staining, number of platelets (CD41, CD42a and CD42b-positive cells) was counted by using FACSVerse (manufactured by BD Japan) with Flow-Count Fluorospheres. The number of platelets was given as a percentage of the control.

[1] = DMSO added at cell seeding (no AhR antagonist), compound 10 μM added at Day 3, platelets (CD41, CD42a, CD42b-positive) counted after 6 days

| SMILES | fold induction at 10 µM | Amount of platelet production (vs. Control) (compound 10 μM added at Day 3) | fold induction at 10 µM [1] |
| --- | --- | --- | --- |
| COc1cccc2c(/C=C/C(=O)NCCc3ccccc3-c3ccccc3)c[nH]c12 [Example 2] | 1.5 to 6.5 | ++ (not less than 6.5 times) |  |
| CCSc1ccccc1CCNC(=O)/C=C/c1c[nH]c2c(OC)cccc12 [Example 3] |  | ++ (not less than 6.5 times) | 1.5 to 6.5 |
| COc1cccc2c(/C=C/C(=O)NCCc3ccccc3CSC)c[nH]c12 [Example 4] | 1.5 to 6.5 | ++ (not less than 6.5 times) |  |
| CCNc1ccccc1CCNC(=O)/C=C/c1c[nH]c2c(OC)cccc12 [Example 5] |  | ++ (not less than 6.5 times) | 1.5 to 6.5 |
| COc1cccc2c(/C=C/C(=O)NCCc3ccccc3OCC3CC3)c[nH]c12 [Example 6] | 1.5 to 6.5 | ++ (not less than 6.5 times) |  |
| COc1cccc2c(/C=C/C(=O)NCCc3ccccc3-c3ccccn3)c[nH]c12 [Example 7] |  | ++ (not less than 6.5 times) | 1.5 to 6.5 |
| COC(=O)c1ccccc1CCNC(=O)/C=C/c1c[nH]c2c(OC)cccc12 [Example 8] |  | ++ (not less than 6.5 times) | 1.5 to 6.5 |
| CCSc1ccccc1CCNC(=O)/C=C/c1cn(C(C)=O)c2c(OC)cccc12 [Example 9] |  | ++ (not less than 6.5 times) | 1.5 to 6.5 |
| COc1cccc2c(/C=C/C(=O)N(C)CCc3ccccc3OCC3CC3)cn(C)c12 [Example 10, (E)-N-[2-[2-(cyclopropylmethoxy)phenyl]ethyl]-3-(7-methoxy-1-methylindol-3-yl)-N-methylprop-2-enamide] |  | ++ (not less than 6.5 times) | 1.5 to 6.5 |
| CCOc1ccsc1CCNC(=O)/C=C/c1c[nH]c2c(OC)cccc12 [Example 11] |  | ++ (not less than 6.5 times) | 1.5 to 6.5 |
| COc1cccc2c(/C=C/C(=O)NCCc3cc(F)ccc3-c3ccccc3)c[nH]c12 [Example 12] |  | ++ (not less than 6.5 times) | 1.5 to 6.5 |
| COc1ccc(-c2ccccc2)c(CCNC(=O)/C=C/c2c[nH]c3c(OC)cccc23)c1 [Example 13] |  | ++ (not less than 6.5 times) | 1.5 to 6.5 |
| COc1cccc2c(/C=C/C(=O)NCCc3ccccc3-c3nccs3)c[nH]c12 [Example 14] | 1.5 to 6.5 | ++ (not less than 6.5 times) |  |
| COc1cccc2c(/C=C/C(=O)NCCc3ccccc3-c3ncco3)c[nH]c12 [Example 15] | > 6.5 | ++ (not less than 6.5 times) |  |
| COc1cccc2c(/C=C/C(=O)NCCc3ccccc3-c3ncccn3)c[nH]c12 [Example 17, (E)-3-(7-methoxy-1H-indol-3-yl)-N-[2-(2-pyrimidin-2-ylphenyl)ethyl]prop-2-enamide] |  | ++ (not less than 6.5 times) | 1.5 to 6.5 |
| COc1cccc2c(/C=C/C(=O)NCCc3ccccc3-c3cccs3)c[nH]c12 [Example 19, (E)-3-(7-methoxy-1H-indol-3-yl)-N-[2-(2-thiophene-2-ylphenyl)ethyl]prop-2-enamide] |  | ++ (not less than 6.5 times) | 1.5 to 6.5 |
| COc1cccc2c(/C=C/C(=O)NCCc3ccccc3-c3ccsc3)c[nH]c12 [Example 20] | 1.5 to 6.5 | ++ (not less than 6.5 times) |  |

| SMILES | fold induction at 10 µM | Amount of platelet production (vs. Control) (compound 10 μM added at Day 3) | fold induction at 10 µM [1] |
| --- | --- | --- | --- |
| COc1cccc2c(/C=C/C(=O)NCCc3sccc3-c3ccccc3)c[nH]c12 [Example 21] | 1.5 to 6.5 | ++ (not less than 6.5 times) |  |
| COc1cccc2c(/C=C/C(=O)NCCc3ccsc3-c3ccccc3)c[nH]c12 [Example 22] | 1.5 to 6.5 | ++ (not less than 6.5 times) |  |
| COc1cccc2c(/C=C/C(=O)NCCc3ccccc3-c3ccccc3)cn(C)c12 [Example 23] | 1.5 to 6.5 | ++ (not less than 6.5 times) |  |
| COc1cccc2c(/C=C/C(=O)NCCc3ccccc3-c3ccccc3)cn(C(C)=O)c12 [Example 24, (E)-3-(1-acetyl-7-methoxyindol-3-yl)-N-[2-(2-phenylphenyl)ethyl]prop-2-enamide] |  | ++ (not less than 6.5 times) | 1.5 to 6.5 |
| COc1cccc2c(/C=C/C(=O)NCCc3ccccc3-c3ccccc3)cn(C(=O)c3ccccc3)c12 [Example 25, (E)-3-(1-benzoyl-7-methoxyindol-3-yl)-N-[2-(2-phenylphenyl)ethyl]prop-2-enamide] |  | ++ (not less than 6.5 times) | 1.5 to 6.5 |
| COc1cccc2c(/C=C/C(=O)NCCc3ccccc3-c3ccco3)c[nH]c12 [Example 26] |  | ++ (not less than 6.5 times) | 1.5 to 6.5 |
| COc1cccc2c(/C=C/C(=O)NCCc3ccccc3-c3ccccc3F)c[nH]c12 [Example 27] |  | ++ (not less than 6.5 times) | 1.5 to 6.5 |
| COc1cccc2c(/C=C/C(=O)NCCc3ccccc3-c3ccc(F)cc3)c[nH]c12 [Example 28] |  | ++ (not less than 6.5 times) | 1.5 to 6.5 |
| CCOc1ncccc1CCNC(=O)/C=C/c1c[nH]c2c(OC)cccc12 [Example 29, (E)-N-[2-(2-ethoxypyridine-3-yl)ethyl]-3-(7-methoxy-1H-indol-3-yl)prop-2-enamide] |  | ++ (not less than 6.5 times) | 1.5 to 6.5 |
| COc1cccc2c(/C=C/C(=O)NCCc3sccc3-c3cccs3)c[nH]c12 [Example 30] |  | ++ (not less than 6.5 times) | 1.5 to 6.5 |
| COc1cccc2c(/C=C/C(=O)NCCc3sccc3-c3ccco3)c[nH]c12 [Example 31] |  | ++ (not less than 6.5 times) | 1.5 to 6.5 |
| COc1cccc2c(/C=C/C(=O)NCCc3sccc3-c3ccccn3)c[nH]c12 [Example 32] |  | ++ (not less than 6.5 times) | 1.5 to 6.5 |
| COc1cccc2c(/C=C/C(=O)NCCc3ccccc3-c3cccnn3)c[nH]c12 [Example 33] |  | ++ (not less than 6.5 times) | 1.5 to 6.5 |
| COc1cccc2c(/C=C/C(=O)NCCc3ccccc3-c3ccncn3)c[nH]c12 [Example 34] |  | ++ (not less than 6.5 times) | 1.5 to 6.5 |
| COCCOc1ccccc1CCNC(=O)/C=C/c1c[nH]c2c(OC)cccc12 [Example 35] |  | ++ (not less than 6.5 times) | 1.5 to 6.5 |
| CCOc1ccccc1CCNC(=O)/C=C/c1c[nH]c2c(OC)nccc12 [Example 36] |  | ++ (not less than 6.5 times) | 1.5 to 6.5 |
| COc1cccc2c(/C=C/C(=O)NCCc3ccccc3-n3cccn3)c[nH]c12 [Example 37] |  | ++ (not less than 6.5 times) | 1.5 to 6.5 |

From patent US20240109842A1, “ACRYLAMIDE COMPOUNDS” (OTSUKA PHARMACEUTICAL CO., LTD., priority 2019, published 2024)
